Results as given in BindingDB's records for doi:10.1021/jm0005454 (Cnrs, 2002).
pKi: −log10 of the molar value.

How the values were obtained:
[1] = target: T1, Angiotensin-converting enzyme (Rattus norvegicus, UniProt P47820); assay: In Vitro Inhibition of NEP
T1 sequence (P47820 whole entry): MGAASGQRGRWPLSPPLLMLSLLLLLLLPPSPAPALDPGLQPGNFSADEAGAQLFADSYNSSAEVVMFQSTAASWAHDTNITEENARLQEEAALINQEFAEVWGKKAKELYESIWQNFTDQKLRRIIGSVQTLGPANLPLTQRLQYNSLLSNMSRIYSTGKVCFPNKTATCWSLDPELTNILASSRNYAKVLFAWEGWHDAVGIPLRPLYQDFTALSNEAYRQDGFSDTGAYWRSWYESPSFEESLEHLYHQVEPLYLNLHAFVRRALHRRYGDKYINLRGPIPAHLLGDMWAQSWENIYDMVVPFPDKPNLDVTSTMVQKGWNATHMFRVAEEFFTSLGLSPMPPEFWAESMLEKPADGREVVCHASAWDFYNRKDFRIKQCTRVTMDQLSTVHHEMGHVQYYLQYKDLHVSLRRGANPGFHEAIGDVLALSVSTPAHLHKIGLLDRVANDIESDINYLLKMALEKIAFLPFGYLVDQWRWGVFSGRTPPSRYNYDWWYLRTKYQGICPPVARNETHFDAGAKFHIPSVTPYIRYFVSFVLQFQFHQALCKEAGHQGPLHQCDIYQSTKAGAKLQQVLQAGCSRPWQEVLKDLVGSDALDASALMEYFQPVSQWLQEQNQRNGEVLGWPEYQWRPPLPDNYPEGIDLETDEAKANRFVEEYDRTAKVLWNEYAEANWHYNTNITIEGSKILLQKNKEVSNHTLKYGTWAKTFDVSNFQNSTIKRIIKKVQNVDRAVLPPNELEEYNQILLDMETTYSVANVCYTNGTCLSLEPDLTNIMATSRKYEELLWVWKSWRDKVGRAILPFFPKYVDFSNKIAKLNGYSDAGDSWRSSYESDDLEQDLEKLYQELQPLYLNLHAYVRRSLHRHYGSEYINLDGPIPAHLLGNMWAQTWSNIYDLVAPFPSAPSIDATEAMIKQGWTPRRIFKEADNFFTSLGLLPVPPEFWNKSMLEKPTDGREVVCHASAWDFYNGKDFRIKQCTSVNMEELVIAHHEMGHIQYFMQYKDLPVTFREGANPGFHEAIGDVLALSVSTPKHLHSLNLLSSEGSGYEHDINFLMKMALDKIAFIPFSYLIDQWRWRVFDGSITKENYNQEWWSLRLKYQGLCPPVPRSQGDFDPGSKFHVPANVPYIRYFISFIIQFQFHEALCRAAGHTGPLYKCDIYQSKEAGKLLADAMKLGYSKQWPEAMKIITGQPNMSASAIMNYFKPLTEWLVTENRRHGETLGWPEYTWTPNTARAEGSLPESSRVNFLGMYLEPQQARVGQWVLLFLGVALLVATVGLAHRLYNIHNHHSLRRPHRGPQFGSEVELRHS
Method: (§1) NEP was preincubated in black 96-well microplates with or without increasing concentrations of inhibitors. DGPA was added, and the reaction was stopped after 1 hr of incubation. The fluorescence was measured at excitation wavelength = 340 nm, emission wavelength = 530 nm.

Neprilysin = target: T2, Neprilysin (Oryctolagus cuniculus, UniProt P08049); assay: In Vitro Inhibition of NEP; details: pH 7.4; 37 °C
T2 sequence (P08049 whole entry): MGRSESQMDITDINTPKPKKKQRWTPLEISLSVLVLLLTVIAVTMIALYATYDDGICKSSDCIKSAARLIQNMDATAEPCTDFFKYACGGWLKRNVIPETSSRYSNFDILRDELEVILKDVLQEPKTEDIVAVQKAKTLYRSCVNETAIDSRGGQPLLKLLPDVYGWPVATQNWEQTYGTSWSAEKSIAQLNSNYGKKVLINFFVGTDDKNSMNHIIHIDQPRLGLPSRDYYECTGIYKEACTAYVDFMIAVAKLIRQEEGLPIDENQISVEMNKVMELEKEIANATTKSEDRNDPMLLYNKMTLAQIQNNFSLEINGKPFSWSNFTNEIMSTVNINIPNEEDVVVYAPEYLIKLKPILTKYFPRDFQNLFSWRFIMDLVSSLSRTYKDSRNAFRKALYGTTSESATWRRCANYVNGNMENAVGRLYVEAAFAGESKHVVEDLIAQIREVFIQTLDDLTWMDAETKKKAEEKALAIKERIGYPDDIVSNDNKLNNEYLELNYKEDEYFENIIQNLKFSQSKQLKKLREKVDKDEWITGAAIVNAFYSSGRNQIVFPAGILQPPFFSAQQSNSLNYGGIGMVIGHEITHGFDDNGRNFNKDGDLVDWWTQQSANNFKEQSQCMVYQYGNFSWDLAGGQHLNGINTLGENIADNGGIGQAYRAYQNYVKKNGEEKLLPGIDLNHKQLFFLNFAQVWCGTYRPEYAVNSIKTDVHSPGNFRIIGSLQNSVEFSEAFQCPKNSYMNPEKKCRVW
Method: as §1

SMILES: O=C(O)[C@H](Cc1c[nH]c2ccccc12)NC(=O)[C@@H](CS)[C@@H]1CCCc2ccccc21 [(2S)-3-(1H-indol-3-yl)-2-[(2S)-3-sulfanyl-2-[(1S)-1,2,3,4-tetrahydronaphthalen-1-yl]propanamido]propanoic acid]
- pKi [1]: 7.59
- pKi (Neprilysin): 8.10
